Results on 5 compounds are retold here after patent US20170008888A1 (KYORIN PHARMACEUTICAL CO., LTD., priority 2014, published 2017).

Usually Kd stands for the equilibrium constant for the complex coming apart. As usually defined, the pKd is the negative decadic logarithm of the Kd, by convention in mol/L. Higher therefore signals a low Kd. What is called EC50 is the concentration at which the effect is half-maximal.

Molecules are shown by their SMILES. pKd: −log10 of the molar value.

The test system of test [1] is DNFB-induced ear inflammation mouse model. Kind of test: DNFB-induced ear inflammation (contact hypersensitivity) mouse model: ear weight. Type of test: in vivo, mouse (Balb/c). As to the method:
In vivo T-cell mediated immune response was examined in a mouse model of CHS using the hapten dinitrofluorobenzene (DNFB) as the induction agent. Method for sensitization and elicitation of DNFB-induced CHS was modified from Xu et al. J. Exp. Med. 1996. 183:1001-1012. On Days 0 and 1 (sensitization), 20 μL of 0.5% v/v DNFB in acetone:olive oil (4:1) was applied to each hindpaw of 8 week old male mice (Balb/c, Charles River Laboratories; 10 mice per group unless otherwise noted). On Day 5 (elicitation) 10 μL of 0.2% v/v DNFB in acetone: olive oil (4:1) was applied to the dorsal surface of the right ear of each animal; 10 μL of acetone: olive oil (4:1) was applied to the dorsal surface of the left ear as control. Treatments were administered by group as indicated in the table below; on days when DNFB was used, the QD and the morning dose of BID as appropriate were administered 30 minutes-1 hr. prior to DNFB application. […] Approximately 24 hours after elicitation (Day 6), a 7 mm tissue punch from the central portion of both ears was collected and wet weights measured. The primary functional assessment was the difference in wet weights of the right (DNFB) vs. left (vehicle) ears compared to the vehicle treatment (Vehicle1-S) as an indicator of inflammation (Table 17). Ear tissue punches were flash frozen, stored at −70° C. and analyzed for cytokines (see below). Body weights of the mice were measured at baseline and at end of study, and there were no significant changes in weight in any treatment group during the study (data not shown).

The next test concerns the target T1, BRD2 (Homo sapiens, UniProt P25440).
T1 construct: read out by qPCR of the phage DNA
Kind of test: Bromodomain binding assay: BRD2. As to the method: (§1) T7 phage strains displaying bromodomains were grown in parallel in 24-well blocks in an E. coli host derived from the BL21 strain. E. coli were grown to log-phase and infected with T7 phage from a frozen stock (multiplicity of infection=0.4) and incubated with shaking at 32° C. until lysis (90-150 minutes). The lysates were centrifuged (5,000×g) and filtered (0.2 μm) to remove cell debris. […] The liganded beads were blocked with excess biotin and washed with blocking buffer (SeaBlock (Pierce), 1% BSA, 0.05 Tween 20, 1 mM DTT) to remove unbound ligand and to reduce non-specific phage binding. […] Test compounds (T62 and 46) were prepared as 1000× stocks in 100% DMSO and subsequently diluted 1:10 in monoethylene glycol (MEG) to create stocks at 100× the screening concentration (resulting stock solution is 10% DMSO/90% MEG). The compounds were then diluted directly into the assays such that the final concentration of DMSO and MEG were 0.1% and 0.9%, respectively. All reactions were performed in polystyrene 96-well plates in a final volume of 0.135 ml. […] The bromodomain concentration in the eluates was measured by qPCR. Compounds were assayed for binding activity against a panel of 40 bromodomain-containing proteins.

The next test addresses T2, ATAD2A (Homo sapiens, UniProt Q6PL18).
T2 construct: T7 phage strains displaying bromodomains were grown in parallel; made in house; host or cells: E. coli host derived from BL21, infected with T7 phage
Kind of test: Bromodomain binding assay: ATAD2A. As to the method: as §1

The target in another test is T3, BAZ2A (Homo sapiens, UniProt Q9UIF9).
T3 construct: T7 phage strains displaying bromodomains were grown in parallel; made in house; host or cells: E. coli host derived from BL21, infected with T7 phage
Kind of test: Bromodomain binding assay: BAZ2A. As to the method:
as §1

For another test, the target named is T4, BRPF1 (Homo sapiens, UniProt P55201).
T4 construct: T7 phage strains displaying bromodomains were grown in parallel; made in house; host or cells: E. coli host derived from BL21, infected with T7 phage
Kind of test: Bromodomain binding assay: BRPF1. As to the method: as §1

Another test deals with T5, FALZ (Homo sapiens, UniProt Q12830).
T5 construct: made in house; host or cells: E. coli host derived from the BL21 strain (T7 phage lysate)
Kind of test: Bromodomain binding assay: FALZ. On the procedure:
as §1

A further test concerns the target T6, SMARCA4 (Homo sapiens, UniProt P51532).
T6 construct: made in house; host or cells: E. coli host derived from the BL21 strain (T7 phage lysate)
Kind of test: Bromodomain binding assay: SMARCA4. As to the method: as §1

Another test addresses T7, TRIM24 (Homo sapiens, UniProt O15164).
T7 construct: made in house; host or cells: E. coli host derived from the BL21 strain (T7 phage lysate)
Kind of test: Bromodomain binding assay: TRIM24. On the procedure: as §1

In the next test the target is T8, WDR9 (Homo sapiens, UniProt Q9NSI6).
T8 construct: made in house; host or cells: E. coli host derived from the BL21 strain (T7 phage lysate)
Kind of test: Bromodomain binding assay: WDR9. On the procedure: as §1

The subject of test [2] is Asthmatic lung fibroblasts. Kind of test: TGF-β-induced fibrotic response (α-SMA expression) in asthmatic lung fibroblasts. The test is classed as cell-based. The conditions noted are these: Homo sapiens, Fibroblast; 2 ng/ml TGF-β1, 48 h; Western blot; read-out: Inhibition of α-SMA expression, EC50 (μM), Asthmatic lung fibroblasts. On the procedure: Nontransformed, human fetal lung fibroblasts (HFL-1) were obtained from ATCC (Manassas, Va.) and maintained in F12K media containing 10% (v/v) charcoal-dextran treated, heat inactivated FBS (Omega Scientific, Tarzana, Calif.). Primary lung fibroblasts isolated from a patient diagnosed with asthma were obtained from Lonza (Allendale, N.J.) and maintained in FGM-2 fibroblast growth medium (Lonza). Cells were seeded at a density to provide 50-60% confluence after an overnight incubation at 37° C. in a humidified atmosphere at 5% CO2. […] Protein content was determined using the Bio-Rad Dc Protein kit (Bio-Rad Laboratories, Hercules, Calif.), and normalized prior to adding an equal volume of 2× Laemmli sample buffer (Sigma). Proteins in the whole cell lysates were resolved via SDS-PAGE gel electrophoresis, and α-SMA was detected via Western blot analysis using a rabbit anti-human α-SMA polyclonal antibody (Abcam, Cambridge, Mass.). α-SMA signal was normalized to the signal of β-actin as detected using mouse anti-human […] antibody (Cell Signaling Technology). DyLight 680 and 800 conjugated secondary antibodies were used and the infrared signals were detected using the Odyssey Imaging System (LI-COR Biotechnology, Lincoln, Nebr.).
In general terms: Immunoblotting shows a protein as a band on a membrane.

Where [3] appears, read: 25 mg/kg PO, BID on Day 5 (elicitation).
The mark [4] stands for this setting: 60 mg/kg PO, BID Days 0-5 (from sensitization).
Where [5] appears, read: 60 mg/kg PO, BID on Day 5 (elicitation).

T3 sequence (Q9UIF9 1793-1897 limits assumed, species assumed): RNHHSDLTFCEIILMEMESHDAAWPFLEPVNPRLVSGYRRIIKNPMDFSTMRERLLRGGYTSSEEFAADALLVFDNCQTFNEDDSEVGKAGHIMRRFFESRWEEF
T1 sequence (P25440 whole entry): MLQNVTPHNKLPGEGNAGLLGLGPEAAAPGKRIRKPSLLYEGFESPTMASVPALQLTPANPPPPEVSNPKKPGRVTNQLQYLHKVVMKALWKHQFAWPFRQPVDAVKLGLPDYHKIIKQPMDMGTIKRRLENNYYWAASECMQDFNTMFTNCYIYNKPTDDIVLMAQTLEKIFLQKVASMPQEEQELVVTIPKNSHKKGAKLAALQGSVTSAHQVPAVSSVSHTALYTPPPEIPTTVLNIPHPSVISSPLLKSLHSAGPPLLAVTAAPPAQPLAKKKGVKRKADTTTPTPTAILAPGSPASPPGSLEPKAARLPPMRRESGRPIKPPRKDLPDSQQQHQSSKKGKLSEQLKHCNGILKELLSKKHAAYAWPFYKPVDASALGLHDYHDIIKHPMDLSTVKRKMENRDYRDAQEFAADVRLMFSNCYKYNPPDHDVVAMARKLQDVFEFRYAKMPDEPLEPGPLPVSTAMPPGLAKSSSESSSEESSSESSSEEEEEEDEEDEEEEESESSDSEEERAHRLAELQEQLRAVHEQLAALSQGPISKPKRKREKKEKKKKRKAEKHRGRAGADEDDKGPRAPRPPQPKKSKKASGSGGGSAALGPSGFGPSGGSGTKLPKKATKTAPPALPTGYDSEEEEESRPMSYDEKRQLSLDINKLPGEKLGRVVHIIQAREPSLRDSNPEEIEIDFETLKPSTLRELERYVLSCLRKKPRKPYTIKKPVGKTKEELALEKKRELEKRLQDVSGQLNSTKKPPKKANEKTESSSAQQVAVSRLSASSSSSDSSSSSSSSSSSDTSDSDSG
T4 sequence (P55201 628-732 limits assumed, species assumed): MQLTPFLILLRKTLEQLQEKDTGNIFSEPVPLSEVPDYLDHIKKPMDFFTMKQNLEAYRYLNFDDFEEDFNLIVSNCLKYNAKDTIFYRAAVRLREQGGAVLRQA
T6 sequence (P51532 1453-1564 limits assumed): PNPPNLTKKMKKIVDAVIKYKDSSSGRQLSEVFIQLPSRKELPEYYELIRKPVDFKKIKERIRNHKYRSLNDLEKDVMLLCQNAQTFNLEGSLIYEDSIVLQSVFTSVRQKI
T8 sequence (Q9NSI6 1313-1418 limits assumed): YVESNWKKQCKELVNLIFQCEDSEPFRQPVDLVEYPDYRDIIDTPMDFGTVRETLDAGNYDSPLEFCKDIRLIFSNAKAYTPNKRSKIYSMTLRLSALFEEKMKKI
T7 sequence (O15164 899-1004 limits assumed): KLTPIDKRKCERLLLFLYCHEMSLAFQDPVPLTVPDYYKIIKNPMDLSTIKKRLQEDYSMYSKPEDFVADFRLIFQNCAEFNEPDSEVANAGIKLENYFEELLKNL
T2 sequence (Q6PL18 980-1092 limits assumed): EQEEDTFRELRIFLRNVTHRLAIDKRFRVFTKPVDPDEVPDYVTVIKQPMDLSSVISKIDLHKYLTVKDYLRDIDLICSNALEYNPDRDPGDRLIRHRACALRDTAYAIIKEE

`CCOc1cc(C(=O)N2CCCN(C)CC2)ccc1Nc1cc2c(cn1)N(C)C(=O)c1ccccc1N2C` [Compound 8]: the “% Reduction Weight Increase Vs. Vehicle 1 Weight Increase” value is listed as −9.4% in test [1] (setting [3]), −38.5% in test [1] (setting [4]) and −22.6% in test [1] (setting [5]).

On to `CCOc1cc(C(=O)N2CCC(N3CCCC3)CC2)ccc1Nc1cc2c(cn1)N(C)C(=O)c1ccccc1N2C` [Compound 46, 3-(2-Ethoxy-4-(4-(pyrrolidin-1-yl)piperidine-1-carbonyl)phenylamino)-5,11-dimethyl-5H-benzo[e]pyrido[3,4-b][1,4]diazepin-10(11H)-one], for which the “% Reduction Weight Increase Vs. Vehicle 1 Weight Increase” value is listed as −39.5% in test [1] (setting [3]), −39.5% in test [1] (setting [4]) and −40.5% in [1] (setting [5]). Besides, the Kd on BRD2 is 55 nM. The pKd at ATAD2A, on BAZ2A, on BRPF1, at FALZ, on SMARCA4 and on TRIM24 was below 4.70 throughout. Also, the pKd at WDR9 was below 4.70.

Turning to `CCOc1cc(C(=O)N2CCC(N3CCN(C)CC3)CC2)ccc1Nc1cc2c(cn1)N(C)C(=O)c1ccccc1N2C` [Compound 61], the EC50 in test [2] was determined as 3.69 µM.

For `CCOc1cc(C(=O)N2CC[C@@H](N(C)C)C2)ccc1Nc1cc2c(cn1)N(C)C(=O)c1ccccc1N2C` [Compound 115], the EC50 in test [2] was determined as 1.37 µM.

`CCOc1cc(C(=O)N[C@H]2CC[C@H](O)CC2)ccc1Nc1cc2c(cn1)N(C)C(=O)c1ccccc1N2C` [Compound T62] registered a Kd at BRD2 of 93 nM. Further, the pKd on ATAD2A, on BAZ2A, at BRPF1, on FALZ, at SMARCA4 and on TRIM24 was below 4.70 throughout. At WDR9, this compound showed a pKd below 4.70.
